Results taken from ChEMBL document CHEMBL5678818, “Discovery of potent SOS1 inhibitors that block RAS activation via disruption of the RAS-SOS1 interaction” (Proc Natl Acad Sci U S A, 2019).

What was measured:
[1] = biological target: T1, Serine/threonine-protein kinase RIO1 (Homo sapiens) (UniProt Q9BRS2); test: Inhibition of RIOK1 (unknown origin) assessed as residual activity at 100 nM by KINOMEscan analysis relative to control
T1 sequence (whole entry): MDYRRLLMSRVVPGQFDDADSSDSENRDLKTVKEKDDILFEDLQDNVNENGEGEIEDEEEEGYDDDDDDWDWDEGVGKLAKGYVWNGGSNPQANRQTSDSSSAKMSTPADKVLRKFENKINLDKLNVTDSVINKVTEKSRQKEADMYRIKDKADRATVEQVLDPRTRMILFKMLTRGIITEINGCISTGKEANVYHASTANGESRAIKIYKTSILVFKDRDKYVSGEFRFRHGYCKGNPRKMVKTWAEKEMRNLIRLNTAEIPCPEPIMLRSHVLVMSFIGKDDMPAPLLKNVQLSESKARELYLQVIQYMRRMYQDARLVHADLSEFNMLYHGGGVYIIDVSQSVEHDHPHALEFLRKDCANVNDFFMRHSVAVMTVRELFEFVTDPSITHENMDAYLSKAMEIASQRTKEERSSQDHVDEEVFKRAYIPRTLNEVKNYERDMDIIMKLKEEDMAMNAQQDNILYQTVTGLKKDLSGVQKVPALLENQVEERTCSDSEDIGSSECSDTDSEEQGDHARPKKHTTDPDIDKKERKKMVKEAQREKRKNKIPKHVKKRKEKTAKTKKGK

[2] = biological target: T2, Serine/threonine-protein kinase 36 (Homo sapiens) (UniProt Q9NRP7); test: Inhibition of STK36 (unknown origin) assessed as residual activity at 100 nM by KINOMEscan analysis relative to control
T2 sequence (whole entry): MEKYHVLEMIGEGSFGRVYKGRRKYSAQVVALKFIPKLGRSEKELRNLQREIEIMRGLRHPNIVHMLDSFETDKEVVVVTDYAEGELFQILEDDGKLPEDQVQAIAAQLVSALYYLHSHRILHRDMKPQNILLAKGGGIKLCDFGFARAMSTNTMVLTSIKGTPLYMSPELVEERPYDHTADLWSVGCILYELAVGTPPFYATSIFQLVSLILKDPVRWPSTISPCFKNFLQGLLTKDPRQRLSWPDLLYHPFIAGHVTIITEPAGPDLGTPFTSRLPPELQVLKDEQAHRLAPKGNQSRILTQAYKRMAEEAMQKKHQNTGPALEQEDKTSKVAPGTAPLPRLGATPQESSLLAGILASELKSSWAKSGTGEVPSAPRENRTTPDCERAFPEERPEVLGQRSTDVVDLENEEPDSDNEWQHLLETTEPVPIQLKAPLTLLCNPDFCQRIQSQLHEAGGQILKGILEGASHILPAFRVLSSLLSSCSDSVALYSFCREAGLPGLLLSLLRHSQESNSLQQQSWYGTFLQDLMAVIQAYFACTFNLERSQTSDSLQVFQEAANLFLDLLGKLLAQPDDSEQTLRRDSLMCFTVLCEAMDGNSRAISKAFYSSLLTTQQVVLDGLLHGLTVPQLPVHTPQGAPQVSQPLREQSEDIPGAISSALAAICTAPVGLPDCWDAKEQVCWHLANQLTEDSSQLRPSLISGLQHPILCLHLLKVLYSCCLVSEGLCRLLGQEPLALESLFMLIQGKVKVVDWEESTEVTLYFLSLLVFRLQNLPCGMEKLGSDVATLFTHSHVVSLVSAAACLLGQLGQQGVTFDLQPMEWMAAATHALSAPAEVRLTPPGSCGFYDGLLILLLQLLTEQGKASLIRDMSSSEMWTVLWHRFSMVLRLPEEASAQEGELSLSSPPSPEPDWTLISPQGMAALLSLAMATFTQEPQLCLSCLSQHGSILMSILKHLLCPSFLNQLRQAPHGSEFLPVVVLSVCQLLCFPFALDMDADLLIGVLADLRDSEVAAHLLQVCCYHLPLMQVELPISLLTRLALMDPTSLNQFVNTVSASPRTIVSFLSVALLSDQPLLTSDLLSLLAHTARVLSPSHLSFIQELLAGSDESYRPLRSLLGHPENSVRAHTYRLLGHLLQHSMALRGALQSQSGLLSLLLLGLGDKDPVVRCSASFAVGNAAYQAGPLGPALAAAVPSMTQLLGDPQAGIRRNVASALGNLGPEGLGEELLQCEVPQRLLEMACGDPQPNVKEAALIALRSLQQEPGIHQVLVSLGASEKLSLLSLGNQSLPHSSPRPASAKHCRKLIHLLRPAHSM

[3] = biological target: Fibroblast growth factor receptor 3 (Homo sapiens) (UniProt P22607); test: Inhibition of FGFR3 (unknown origin) assessed as residual activity at 100 nM by KINOMEscan analysis relative to control
Homo sapiens = organism: Homo sapiens; test: Inhibition of PIP5K1C (unknown origin) assessed as residual activity at 100 nM by KINOMEscan analysis relative to control

Sequence of Fibroblast growth factor receptor 3 (Homo sapiens) (P22607 23-806 limits assumed): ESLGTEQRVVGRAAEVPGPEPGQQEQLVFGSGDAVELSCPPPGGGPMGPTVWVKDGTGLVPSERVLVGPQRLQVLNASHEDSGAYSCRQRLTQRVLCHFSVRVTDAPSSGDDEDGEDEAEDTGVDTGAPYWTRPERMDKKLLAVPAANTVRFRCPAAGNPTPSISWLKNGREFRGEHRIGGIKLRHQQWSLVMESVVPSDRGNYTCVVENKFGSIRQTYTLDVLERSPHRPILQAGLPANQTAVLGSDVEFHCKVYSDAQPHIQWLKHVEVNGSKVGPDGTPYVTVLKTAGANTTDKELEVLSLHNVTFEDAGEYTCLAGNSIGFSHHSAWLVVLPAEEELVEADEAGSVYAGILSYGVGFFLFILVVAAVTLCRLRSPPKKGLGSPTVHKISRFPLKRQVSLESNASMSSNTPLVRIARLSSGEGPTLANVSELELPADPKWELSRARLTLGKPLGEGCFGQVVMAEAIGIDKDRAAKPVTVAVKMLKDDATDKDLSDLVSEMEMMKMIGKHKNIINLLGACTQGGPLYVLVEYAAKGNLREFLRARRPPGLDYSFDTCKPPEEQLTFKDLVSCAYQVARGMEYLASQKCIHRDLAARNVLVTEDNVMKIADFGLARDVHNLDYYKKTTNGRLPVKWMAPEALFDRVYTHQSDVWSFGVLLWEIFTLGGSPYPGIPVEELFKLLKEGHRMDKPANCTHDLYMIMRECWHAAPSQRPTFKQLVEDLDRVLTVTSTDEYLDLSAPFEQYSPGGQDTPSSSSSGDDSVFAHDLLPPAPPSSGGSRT

In the case of `COc1cc2ncnc(N[C@H](C)c3cccc4ccccc34)c2cc1OC`, the Activity [1] is reported as 58%, the Activity [2] is reported as 80% and the Activity [3] is reported as 72%. For the same compound, the Activity (Homo sapiens) was 63%.
